# According to patent US20090029954A1, “PROGESTERONE-RECEPTOR ANTAGONIST FOR USE IN BRCA ALONE OR AS COMBINATION WITH ANTIESTROGEN” (priority 2007, published 2009):
# Read-outs that look alike come from different tables or passages of the source.
# Experiments:
# progesterone receptor [1] = target: T1, progesterone receptor (Homo sapiens, UniProt P06401); test: Progesterone receptor protein expression/stability after siRNA BRCA1 knock down (Example 1); type: cell-based
# T1 sequence (P06401 1-933): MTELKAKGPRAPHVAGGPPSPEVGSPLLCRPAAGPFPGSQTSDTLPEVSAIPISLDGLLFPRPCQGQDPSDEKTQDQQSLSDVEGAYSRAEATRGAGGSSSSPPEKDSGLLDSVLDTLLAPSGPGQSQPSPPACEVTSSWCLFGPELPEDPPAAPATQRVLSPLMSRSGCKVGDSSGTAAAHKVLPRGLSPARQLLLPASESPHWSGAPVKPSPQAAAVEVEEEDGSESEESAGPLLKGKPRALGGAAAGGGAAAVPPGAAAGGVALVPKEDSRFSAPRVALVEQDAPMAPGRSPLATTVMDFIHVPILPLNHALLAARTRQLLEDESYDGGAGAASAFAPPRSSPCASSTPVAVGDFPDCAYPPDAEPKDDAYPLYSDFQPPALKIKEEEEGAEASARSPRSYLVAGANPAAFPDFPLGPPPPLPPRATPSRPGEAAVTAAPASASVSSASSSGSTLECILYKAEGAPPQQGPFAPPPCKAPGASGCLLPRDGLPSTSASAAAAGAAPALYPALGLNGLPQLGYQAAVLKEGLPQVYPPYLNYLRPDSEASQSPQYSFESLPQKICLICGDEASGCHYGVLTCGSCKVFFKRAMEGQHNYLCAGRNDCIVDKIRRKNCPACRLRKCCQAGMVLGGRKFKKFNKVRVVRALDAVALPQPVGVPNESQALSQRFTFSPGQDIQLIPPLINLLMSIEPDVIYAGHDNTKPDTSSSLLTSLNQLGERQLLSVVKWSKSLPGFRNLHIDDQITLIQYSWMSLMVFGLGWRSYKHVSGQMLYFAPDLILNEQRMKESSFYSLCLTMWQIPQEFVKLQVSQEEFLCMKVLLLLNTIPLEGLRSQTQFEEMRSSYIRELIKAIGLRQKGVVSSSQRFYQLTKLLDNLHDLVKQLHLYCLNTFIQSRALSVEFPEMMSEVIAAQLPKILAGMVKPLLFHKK
# Protocol: (§1) MCF-10 mammary cells and T47D breast cancer cells obtained from ATCC were treated with siRNA knocking down the BRCA1 and BRCA2 gene.
# (§2) Cell growth in comparison to untransfected and mock transfected cells was compared. In a second step cells were stimulated either with progesterone and/or with estrogens. […] The effects on progesteron receptor protein expression were further investigated.
# progesterone receptor [2] = target: T1, progesterone receptor; conditions: Fuhrmann et al., J. Med. Chem. 2000; cited from earlier work
# progesterone receptor [3] = target: T1, progesterone receptor; test: Progesterone receptor protein expression/stability after siRNA BRCA1 knock down (Example 3); type: cell-based
# Protocol: (§3) MCF-10 mammary cells obtained from ATCC were treated with siRNA knocking down the BRCA1 and BRCA2 gene.
# as §2
# [4] = test system: BRCA1-, respectively BRCA2-mediated mammary carcinogenesis; test: Mammary tumor formation in transgenic mice with breast-specific inactivation of p53 and BRCA1/BRCA2 (Example 2); type: in vivo; conditions: mice monitored weekly for tumor formation; placebo group median tumor latency 6.6 months
# From the text: To address the specific roles of progesterone receptors in BRCA1- and BRCA2-mediated tumorigenesis, transgenic mice with an organ specific inactivation of p53 and BRCA1, respectively BRCA2 in the breast tissue have been studied. Inactivation of both BRCA1, respectively BRCA2 and p53 or c-myc genes in the mouse mammary gland mimics the majority of human BRCA1-associated tumors, which also harbor p53 mutations.
# Because progesterone is a potent mitogen for BRCA1, respectively BRCA2 p53 or c-myc Crec mammary epithelial cells, it was tested whether blockade of the progesterone receptor activity by the progesterone receptor antagonist 11β-(4-acetylphenyl)-17β-hydroxy-17α-(1,1,2,2,2-pentafluoroethyl)-estra-4,9-dien-3-one could prevent or delay mammary carcinogenesis. Mice were treated with a placebo or with 11β-(4-acetylphenyl)-17β-hydroxy-17α-(1,1,2,2,2-pentafluoroethyl)-estra-4,9-dien-3-one. The mice were monitored weekly for tumor formation. The median tumor latency of was 6.6 months for the placebo control group with all mice developing palpable tumors.
# progesterone receptor [5] = target: T1, progesterone receptor; test: Endocrine profile of the progesterone-receptor antagonist
# tumor cells = test: Apoptosis of tumor cells
# [6] = test system: MCF-10 mammary cells with BRCA1 and BRCA2 knock down; test: Growth of MCF-10 cells with siRNA BRCA1/BRCA2 knock down (Example 3); type: cell-based; conditions: co-treatment; MCF-10 siRNA knock down cells stimulated with progesterone and/or estrogens
# Protocol: as §3, §2
# [7] = test system: MCF-10 mammary cells and T47D breast cancer cells with BRCA1 and BRCA2 knock down; test: Growth of breast cells with siRNA BRCA1/BRCA2 knock down (Example 1); type: cell-based
# Protocol: as §1, §2
# Bioavailability = type: in vivo; conditions: compared to ICI 182,780
# [8] = test system: mammary tumors in Brca1/p53-deficient model; conditions: mice with BRCA1- or BRCA2 inactivated in mammary glands; Poole et al., Science 2006; cited from earlier work
# [9] = administered orally; cited from earlier work
smiles,measurement,setting,value
"CC(=O)c1ccc(C2C[C@@]3(C)[C@@H](CC[C@@]3(O)C(F)(F)C(F)(F)F)[C@@H]3CCC4=CC(=O)CCC4=C23)cc1 (stereo partly drawn) [11β-(4-acetylphenyl)-17β-hydroxy-17α-(1,1,2,2,2-pentafluoroethyl)-estra-4,9-dien-3-one]",increased stability of progesterone receptor after BRCA1 knock down,progesterone receptor [1],could be antagonized
same,antiprogestagenic activity,progesterone receptor [2],high antiprogestagenic activity
same,other endocrinological effects,progesterone receptor [2],little or no other endocrinological effects
same,increased stability of progesterone receptor after BRCA1 knock down,progesterone receptor [3],could be antagonized
same,palpable tumors,[4],no palpable tumors were detected
same,"endocrine side effects (androgen, estrogen or antiglucocorticoid activity)",progesterone receptor [5],only very weak or no endocrine side effects
same,apoptosis of tumor cells,tumor cells,increased apoptosis of tumor cells
same,antagonism of the effects of BRCA1 knock down (increased proliferation in the presence of progesterone),[6],able to antagonize the effects of BRCA1 knock down
same,inhibition of the growth of BRCA1 knock down cells,[7]; Example 1,potent inhibition
same,antagonism of the effects of BRCA1 knock down (increased proliferation in the presence of progesterone),"[7]; co-treatment, siRNA knock down cells stimulated with progesterone and/or estrogens",able to antagonize the effects of BRCA1 knock down
"CN(CCCCCCCC(F)(F)C(F)(F)F)CCCCCC1Cc2cc(O)ccc2C2C(F)CC3(C)C(CCC3(C)O)C12 (stereo not drawn) [11β-Fluoro-17α-methyl-7α-{5-[methyl(8,8,9,9,9-pentafluorononyl)-amino]pentyl}-estra-1,3,5(10)-triene-3,17β-diol]",bioavailability,Bioavailability,particularly high bioavailability
CC#C[C@]1(O)CC[C@H]2[C@@H]3CCC4=CC(=O)CCC4=C3[C@@H](c3ccc(N(C)C)cc3)C[C@@]21C [mifepristone],development of mammary tumors,[8],blocks the development of mammary tumors
same,bioavailability,[9],poor bioavailability
